In patent publication US20180148418A1, “AMIDO-SUBSTITUTED CYCLOHEXANE DERIVATIVES” (Bayer Pharma Aktiengesellschaft, priority 2015, published 2018):

Experiments:
TNKS2 = molecular target: T1, TNKS2 (Homo sapiens, UniProt Q9H2K2); experiment: TNKS2 Assay B (auto-parsylation, [3H]-NAD+ SPA); type: biochemical; conditions: 6 nM TNKS2, auto-parsylation, over night at room temperature
T1 construct: purchased BPS Bioscience, San Diego, USA 80572 (TNKS2 Histone Ribosylation Assay Kit)
T1 sequence (Q9H2K2 1-1166): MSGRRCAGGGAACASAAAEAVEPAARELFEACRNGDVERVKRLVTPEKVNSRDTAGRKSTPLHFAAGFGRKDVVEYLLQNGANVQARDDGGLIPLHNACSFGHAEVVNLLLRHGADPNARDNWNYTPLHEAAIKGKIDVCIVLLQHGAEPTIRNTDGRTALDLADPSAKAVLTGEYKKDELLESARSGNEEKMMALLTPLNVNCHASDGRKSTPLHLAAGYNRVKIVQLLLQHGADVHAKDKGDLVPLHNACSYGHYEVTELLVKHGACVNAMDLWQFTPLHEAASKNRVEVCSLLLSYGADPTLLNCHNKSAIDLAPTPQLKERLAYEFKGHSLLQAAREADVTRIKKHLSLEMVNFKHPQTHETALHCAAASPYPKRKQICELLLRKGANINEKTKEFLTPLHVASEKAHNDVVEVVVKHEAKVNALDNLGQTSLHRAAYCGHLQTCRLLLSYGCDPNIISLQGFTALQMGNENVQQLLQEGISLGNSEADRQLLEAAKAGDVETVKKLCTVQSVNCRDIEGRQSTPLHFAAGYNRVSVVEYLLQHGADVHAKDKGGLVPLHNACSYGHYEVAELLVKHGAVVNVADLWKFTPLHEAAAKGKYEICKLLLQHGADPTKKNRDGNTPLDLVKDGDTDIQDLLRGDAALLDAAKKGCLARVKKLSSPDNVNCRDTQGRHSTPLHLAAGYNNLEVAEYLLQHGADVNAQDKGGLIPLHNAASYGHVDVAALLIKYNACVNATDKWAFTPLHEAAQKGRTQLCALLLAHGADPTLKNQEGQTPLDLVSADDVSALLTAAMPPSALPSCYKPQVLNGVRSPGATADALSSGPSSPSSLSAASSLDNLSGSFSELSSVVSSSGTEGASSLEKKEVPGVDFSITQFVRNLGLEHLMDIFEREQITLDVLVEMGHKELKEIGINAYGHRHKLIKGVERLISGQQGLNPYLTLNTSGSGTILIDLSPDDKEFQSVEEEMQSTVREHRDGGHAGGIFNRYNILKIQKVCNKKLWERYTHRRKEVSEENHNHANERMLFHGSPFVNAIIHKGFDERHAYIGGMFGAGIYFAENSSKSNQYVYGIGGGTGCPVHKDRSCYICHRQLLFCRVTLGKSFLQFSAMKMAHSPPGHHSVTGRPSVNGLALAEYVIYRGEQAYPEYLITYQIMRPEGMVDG

[1] = test system: wildtype Wnt signaling cascade; experiment: HEK293 TOP assay (Super TopFlash luciferase reporter, Wnt-3a stimulated); type: cell-based; conditions: Homo sapiens, HEK293 TOP reporter cells, Wnt3a at EC50, 16 hours
Procedure, shortened: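 HEK293 cells stably carrying Super TopFlash (TOP) run in parallel with FOP cells, 10000/well plated 24 h ahead, stimulated with recombinant human Wnt-3a. Compounds tested 50 μM to 15 nM in 3.16-fold steps in CAFTY buffer pH 7.4 with 2 mM Ca^2+ and 0.01% BSA; luciferase read-out.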

[2] = test system: HEK293 cells cotransfected with the FOP control vector; experiment: HEK293 FOP assay (control reporter with non-functional TCF elements); type: cell-based; conditions: Homo sapiens, 16 hours
Procedure, shortened: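 Stable HEK293 line carrying FOP control reporter (randomized non-functional TCF sites, with pcDNA3), Geneticin-selected, plated 24 h before assay. Stimulated with recombinant human Wnt-3a (2500-5 ng/ml) and compounds 50 μM–15 nM (3.16-fold steps) in CAFTY buffer pH 7.4 with 2 mM Ca2+, 0.01% BSA, run parallel to TOP line.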

Row | Structure (SMILES) | IC50 (TNKS2) | IC50 ([1]; HEK293, 16 h) | IC50 [2] | IC50 [1]
1 | CNC(=O)c1nc[nH]c1C(=O)N[C@H]1CC[C@@]2(CCCN(c3cc(F)c(F)cc3Cl)C2=O)CC1 [Example 317, N^5-[(trans)-2-(2-chloro-4,5-difluorophenyl)-1-oxo-2-azaspiro[5.5]undec-9-yl]-N^4-methyl-1H-imidazole-4,5-dicarboxamide] | 8.7 nM | 1.4 nM | ≥ 500 nM | 
2 | CCNC(=O)c1nc[nH]c1C(=O)N[C@H]1CC[C@@]2(CCCN(c3cc(F)c(F)cc3Cl)C2=O)CC1 [Example 318, N^5-[(trans)-2-(2-chloro-4,5-difluorophenyl)-1-oxo-2-azaspiro[5.5]undec-9-yl]-N^4-ethyl-1H-imidazole-4,5-dicarboxamide] | 8.7 nM | 2 nM | ≥ 500 nM | 
3 | CC(C)n1nc(C(=O)N[C@H]2CC[C@@]3(CCN(c4ccc(F)cc4Cl)C3=O)CC2)c2ccc(Br)cc21 [Example 319, 6-bromo-N-[(trans)-2-(2-chloro-4-fluorophenyl)-1-oxo-2-azaspiro[4.5]dec-8-yl]-1-isopropyl-1H-indazole-3-carboxamide] | > 10000 nM |  | ≥ 50000 nM | ≥ 50000 nM
4 | NC(=O)c1nc[nH]c1C(=O)N[C@H]1CC[C@@]2(CCCN(c3cc(F)c(F)cc3Cl)C2=O)CC1 [Example 320, N^5-[(trans)-2-(2-chloro-4,5-difluorophenyl)-1-oxo-2-azaspiro[5.5]undec-9-yl]-1H-imidazole-4,5-dicarboxamide] | 9.4 nM | 27 nM | ≥ 50000 nM | 
5 | CC(C)NC(=O)c1nc[nH]c1C(=O)N[C@H]1CC[C@@]2(CCCN(c3cc(F)c(F)cc3Cl)C2=O)CC1 [Example 321, N^5-[(trans)-2-(2-chloro-4,5-difluorophenyl)-1-oxo-2-azaspiro[5.5]undec-9-yl]-N^4-(propan-2-yl)-1H-imidazole-4,5-dicarboxamide] | 52 nM | 6 nM | 24000 nM | 
6 | O=C(N[C@H]1CC[C@@]2(CCCN(c3cc(F)c(F)cc3Cl)C2=O)CC1)c1[nH]cnc1C(=O)N1CC(OC(F)F)C1 [Example 322, N-[(trans)-2-(2-chloro-4,5-difluorophenyl)-1-oxo-2-azaspiro[5.5]undec-9-yl]-4-{[3-(difluoromethoxy)azetidin-1-yl]carbonyl}-1H-imidazole-5-carboxamide] | 12 nM | 1.4 nM | 21000 nM | 
7 | O=C(N[C@H]1CC[C@@]2(CCCN(c3cc(F)c(F)cc3Cl)C2=O)CC1)c1[nH]cnc1C(=O)N1CCOCC1 [Example 323, N-[(trans)-2-(2-chloro-4,5-difluorophenyl)-1-oxo-2-azaspiro[5.5]undec-9-yl]-4-(morpholin-4-ylcarbonyl)-1H-imidazole-5-carboxamide] | 930 nM | 97 nM | ≥ 50000 nM | 
8 | O=C(NC1CC1)c1nc[nH]c1C(=O)N[C@H]1CC[C@@]2(CCCN(c3cc(F)c(F)cc3Cl)C2=O)CC1 [Example 324, N^5-[(trans)-2-(2-chloro-4,5-difluorophenyl)-1-oxo-2-azaspiro[5.5]undec-9-yl]-N^4-cyclopropyl-1H-imidazole-4,5-dicarboxamide] | 19 nM | 3 nM | ≥ 500 nM | 
9 | O=C(N[C@H]1CC[C@@]2(CCCN(c3ccc(F)cc3Cl)C2=O)CC1)c1cnn2cccnc12 [Example 325, N-[(trans)-2-(2-chloro-4-fluorophenyl)-1-oxo-2-azaspiro[5.5]undec-9-yl]pyrazolo[1,5-a]pyrimidine-3-carboxamide] | 100 nM | 23 nM | ≥ 50000 nM | 
10 | O=C(N[C@H]1CC[C@@]2(CCCN(c3ccc(F)cc3Cl)C2=O)CC1)c1cnc2cccnn12 [Example 326, N-[(trans)-2-(2-chloro-4-fluorophenyl)-1-oxo-2-azaspiro[5.5]undec-9-yl]imidazo[1,2-b]pyridazine-3-carboxamide] | 180 nM | 60 nM | ≥ 50000 nM | 
